Experimental data reported in ChEMBL document CHEMBL1201862, “PubChem BioAssay data set” (2004).
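Results reflect a 48-hour exposure of cells in 96-well plates to compound at five concentrations. Abbreviation: GI50, concentration required for 50% inhibition of growth.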 The source made the active and inactive calls. Cut-off read from the data, not from the text of the source: active = GI50 up to about 1.1 µM and inactive = higher.

Assays:
Assay in all cases: growth of human tumour cells (NCI), 48 h
[1] = system: 786-0
[2] = system: A498
[3] = system: A549
[4] = system: ACHN
[5] = system: BT-549
[6] = system: CAKI-1
[7] = system: CCRF-CEM
[8] = system: COLO 205
[9] = system: DU-145
[10] = system: EKVX
[11] = system: HCT-116
[12] = system: HCT-15
[13] = system: HL-60
[14] = system: HOP-62
[15] = system: HOP-92
[16] = system: HT-29
[17] = system: Hs-578T
[18] = system: K562
[19] = system: KM12
[20] = system: LOX IMVI
[21] = system: M14
[22] = system: MDA-MB-231
[23] = system: MDA-MB-435
[24] = system: MDA-N
[25] = system: MOLT-4
[26] = system: Malme-3M
[27] = system: NCI-H23
[28] = system: NCI-H522
[29] = system: NCI/ADR-RES
[30] = system: OVCAR-3
[31] = system: OVCAR-8
[32] = system: PC-3
[33] = system: RPMI-8226
[34] = system: RXF 393
[35] = system: SF-268
[36] = system: SF-295
[37] = system: SK-MEL-28
[38] = system: SK-MEL-2
[39] = system: SK-MEL-5
[40] = system: SK-OV-3
[41] = system: SN12C
[42] = system: SNB-75
[43] = system: SR
[44] = system: SW-620
[45] = system: U-251
[46] = system: UACC-257
[47] = system: UACC-62
[48] = system: UO-31
[49] = system: HCC 2998
[50] = system: IGROV-1
[51] = system: MCF7
[52] = system: NCI-H226
[53] = system: NCI-H460
[54] = system: OVCAR-4
[55] = system: SF-539
[56] = system: SNB-19
[57] = system: TK-10
[58] = system: OVCAR-5

With `Cc1cc(-c2nc3c(F)cccc3s2)ccc1N` the GI50 [1] was 92.5 µM (inactive), the GI50 [2] was 8.2 µM (inactive) and the GI50 [3] was 49.3 µM (inactive). The GI50 [4] was 30 µM (inactive), the GI50 [5] was 66.1 µM (inactive) and the GI50 [6] was 50.4 µM (inactive). The GI50 [7] was 3.94 µM (inactive), the GI50 [8] was 80.5 µM (inactive) and the GI50 [9] was 52.4 µM (inactive). The GI50 [10] was 2.42 µM (inactive), the GI50 [11] was 85.1 µM (inactive) and the GI50 [12] was 84.9 µM. The GI50 [13] was 43.8 µM (inactive), the GI50 [14] was 62.5 µM (inactive) and the GI50 [15] was > 100 µM (inactive). For the same compound, the GI50 [16] was 44.8 µM (inactive), the GI50 [17] was 98.6 µM (inactive) and the GI50 [18] was 40.3 µM (inactive). For the same compound, the GI50 [19] was 38.9 µM (inactive), the GI50 [20] was 61.4 µM (inactive) and the GI50 [21] was 97.5 µM (inactive). The GI50 [22] was > 100 µM (inactive), the GI50 [23] was 57.3 µM (inactive) and the GI50 [24] was 70.1 µM (inactive). The GI50 [25] was 10.7 µM (inactive), the GI50 [26] was 28.8 µM (inactive) and the GI50 [27] was 32.8 µM (inactive). For the same compound, the GI50 [28] was 11.3 µM (inactive), the GI50 [29] was > 100 µM (inactive) and the GI50 [30] was > 100 µM (inactive). For the same compound, the GI50 [31] was > 100 µM (inactive), the GI50 [32] was 97.5 µM (inactive) and the GI50 [33] was 26.9 µM (inactive). The GI50 [34] was 41.7 µM (inactive), the GI50 [35] was 39.9 µM (inactive) and the GI50 [36] was 41.2 µM (inactive). For the same compound, the GI50 [37] was > 100 µM (inactive), the GI50 [38] was > 100 µM (inactive) and the GI50 [39] was 62.2 µM (inactive). For the same compound, the GI50 [40] was > 100 µM (inactive), the GI50 [41] was 28.2 µM (inactive) and the GI50 [42] was 52.1 µM (inactive). The GI50 [43] was 48 µM (inactive), the GI50 [44] was > 100 µM (inactive) and the GI50 [45] was 69.2 µM (inactive). For the same compound, the GI50 [46] was 82.6 µM (inactive), the GI50 [47] was 21 µM (inactive) and the GI50 [48] was 12.4 µM (inactive).
For `Cc1cc(C)c2c(O)cc(-c3cccc(Cl)c3)nc2n1`, the GI50 [1] was 0.261 µM (active), the GI50 [2] was 0.514 µM (active) and the GI50 [3] was 0.227 µM (active). For the same compound, the GI50 [4] was 2.12 µM (inactive), the GI50 [5] was 1.59 µM (inactive) and the GI50 [7] was 0.229 µM (active). For the same compound, the GI50 [8] was 0.175 µM (active), the GI50 [9] was 0.5 µM (active) and the GI50 [10] was > 25 µM (inactive). For the same compound, the GI50 [49] was 0.403 µM (active), the GI50 [11] was 0.0791 µM (active) and the GI50 [12] was 0.101 µM. For the same compound, the GI50 [13] was 0.0316 µM (active), the GI50 [14] was 0.438 µM (active) and the GI50 [15] was 21.9 µM (inactive). The GI50 [16] was 0.122 µM (active), the GI50 [17] was 0.252 µM (active) and the GI50 [50] was 0.2 µM (active). For the same compound, the GI50 [18] was < 0.0199 µM (active), the GI50 [19] was 0.0933 µM (active) and the GI50 [20] was 0.273 µM (active). The GI50 [21] was 0.134 µM (active), the GI50 [51] was 0.208 µM (active) and the GI50 [22] was 0.256 µM (active). The GI50 [23] was 0.0115 µM (active), the GI50 [24] was 0.0138 µM (active) and the GI50 [25] was 0.161 µM (active). The GI50 [26] was 0.18 µM (active), the GI50 [52] was 0.391 µM (active) and the GI50 [27] was 0.76 µM (active). For the same compound, the GI50 [53] was 0.0968 µM (active), the GI50 [28] was 0.0356 µM (active) and the GI50 [29] was 0.254 µM (active). For the same compound, the GI50 [30] was 0.106 µM (active), the GI50 [54] was 77.3 µM (inactive) and the GI50 [31] was 0.4 µM (active). For the same compound, the GI50 [32] was 0.0282 µM (active), the GI50 [33] was 0.148 µM (active) and the GI50 [34] was 0.179 µM (active). For the same compound, the GI50 [35] was 1.05 µM (active), the GI50 [36] was 0.0492 µM (active) and the GI50 [55] was 0.119 µM (active). For the same compound, the GI50 [37] was 5.09 µM (inactive), the GI50 [39] was 0.0518 µM (active) and the GI50 [40] was 0.293 µM (active). For the same compound, the GI50 [41] was 0.187 µM (active), the GI50 [56] was 0.349 µM (active) and the GI50 [42] was 0.166 µM (active). The GI50 [43] was 0.0855 µM (active), the GI50 [44] was 0.0578 µM (active) and the GI50 [57] was > 41.1 µM (inactive). For the same compound, the GI50 [45] was 0.206 µM (active), the GI50 [46] was 1.95 µM (inactive) and the GI50 [47] was 0.0681 µM (active). For the same compound, the GI50 [48] was 3.34 µM (inactive).
In the case of `COc1ccc(C2CC(c3cc4c(C)c(C(=O)c5ccccc5)oc4cc3O)=Nc3ccccc3S2)cc1OC` (configuration not stated), the GI50 [1] is reported as 47.6 µM (inactive), the GI50 [2] is reported as > 57.5 µM (inactive) and the GI50 [3] is reported as 96.8 µM (inactive). For the same compound, the GI50 [4] was > 65.8 µM (inactive), the GI50 [5] was > 56.5 µM (inactive) and the GI50 [7] was 70.8 µM (inactive). The GI50 [8] was > 100 µM (inactive), the GI50 [10] was 28.2 µM (inactive) and the GI50 [49] was > 100 µM (inactive). The GI50 [11] was > 90.4 µM (inactive), the GI50 [12] was > 73.1 µM and the GI50 [13] was 9.82 µM (inactive). For the same compound, the GI50 [15] was 20.3 µM (inactive), the GI50 [16] was > 100 µM (inactive) and the GI50 [17] was 25.8 µM (inactive). The GI50 [50] was 55.8 µM (inactive), the GI50 [18] was > 72.9 µM (inactive) and the GI50 [20] was > 100 µM (inactive). For the same compound, the GI50 [21] was > 57.1 µM (inactive), the GI50 [51] was > 64 µM (inactive) and the GI50 [22] was > 87.3 µM (inactive). The GI50 [23] was 0.733 µM (active), the GI50 [24] was > 40.2 µM (inactive) and the GI50 [25] was > 100 µM (inactive). For the same compound, the GI50 [26] was 25.8 µM (inactive), the GI50 [52] was > 100 µM (inactive) and the GI50 [27] was 52.7 µM (inactive). The GI50 [53] was > 100 µM (inactive), the GI50 [28] was 19.1 µM (inactive) and the GI50 [29] was > 58.1 µM (inactive). For the same compound, the GI50 [58] was > 100 µM (inactive), the GI50 [31] was > 100 µM (inactive) and the GI50 [32] was > 100 µM (inactive). The GI50 [33] was > 91.6 µM (inactive), the GI50 [35] was > 42.7 µM (inactive) and the GI50 [55] was > 50 µM (inactive). The GI50 [37] was > 100 µM (inactive), the GI50 [38] was > 59.2 µM (inactive) and the GI50 [39] was > 56.5 µM (inactive). The GI50 [41] was > 100 µM (inactive), the GI50 [56] was 48.8 µM (inactive) and the GI50 [42] was 73.6 µM (inactive). The GI50 [43] was 52.5 µM (inactive), the GI50 [44] was > 84.7 µM (inactive) and the GI50 [57] was > 77.1 µM (inactive). For the same compound, the GI50 [45] was > 65 µM (inactive), the GI50 [46] was > 100 µM (inactive) and the GI50 [47] was > 51.4 µM (inactive). For the same compound, the GI50 [48] was > 100 µM (inactive).
